# Measurements reported in patent US6689773B2, “Uracil substituted phenyl sulfamoyl carboxamides” (BASF Aktiengesellschaft, priority 2000, dated 2004).
# Columns and labels:
# Type in all cases: in vivo
# [1] = tested on: ABUTH, Velvetleaf, Abutilon theophrasti, Medic.; experiment: Postemergence herbicidal evaluation (Example 147); settings: rating scale 0-9, two to three weeks after treatment
# In short: (§1)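 Plants at about two weeks from sowing received a foliar spray of test compound equivalent to roughly 0.016 to 0.032 kg per hectare. The carrier was 80/20 acetone/water containing 1.0% methylated seed oil. Injury was scored on a 0-9 visual scale two to three weeks later.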
# [2] = tested on: ALOMY, Blackgrass, Alopecurus myosuroides; experiment: Postemergence herbicidal evaluation (Example 147); settings: rating scale 0-9, two to three weeks after treatment
# In short: as §1
# [3] = tested on: AMBEL, Ragweed, Common, Ambrosia artemiisifolia, L.; experiment: Postemergence herbicidal evaluation (Example 147); settings: rating scale 0-9, two to three weeks after treatment
# In short: as §1
# [4] = tested on: CHEAL, Lambsquarters, Chenopodium album, L. Common; experiment: Postemergence herbicidal evaluation (Example 147); settings: rating scale 0-9, two to three weeks after treatment
# In short: as §1
# [5] = tested on: DIGSA, Crabgrass, (Hairy) L, Digitaria sanguinalis, (L)Scop; experiment: Postemergence herbicidal evaluation (Example 147); settings: rating scale 0-9, two to three weeks after treatment
# In short: as §1
# [6] = tested on: ECHCG, Barnyardgrass, Echinochloa crusgalli, (L.)Beau; experiment: Postemergence herbicidal evaluation (Example 147); settings: rating scale 0-9, two to three weeks after treatment
# In short: as §1
# [7] = tested on: GLXMA, Soybean, Glycine max, (L.) Merr.; experiment: Postemergence herbicidal evaluation (Example 147); settings: rating scale 0-9, two to three weeks after treatment
# In short: as §1
# [8] = tested on: IPOHE, Morningglory, Ivyleaf, Ipomoea hederacea, (L)Jacq.; experiment: Postemergence herbicidal evaluation (Example 147); settings: rating scale 0-9, two to three weeks after treatment
# In short: as §1
# [9] = tested on: SETVI, Green foxtail, Setaria viridis, (L.)Beau; experiment: Postemergence herbicidal evaluation (Example 147); settings: rating scale 0-9, two to three weeks after treatment
# In short: as §1
# [10] = tested on: TRZAW, Winter wheat, Tritium Aestivum, L. (Winter); experiment: Postemergence herbicidal evaluation (Example 147); settings: rating scale 0-9, two to three weeks after treatment
# In short: as §1
# [11] = tested on: XANST, Cocklebur, Xanthium strumariam; experiment: Postemergence herbicidal evaluation (Example 147); settings: rating scale 0-9, two to three weeks after treatment
# In short: as §1
# [12] = tested on: ZEAMX, Field corn, Zea mays L.; experiment: Postemergence herbicidal evaluation (Example 147); settings: rating scale 0-9, two to three weeks after treatment
# In short: as §1
# [13] = tested on: ABUTH, Velvetleaf, Abutilon theophrasti, Medic.; experiment: Preemergence herbicidal evaluation (Example 148); settings: rating scale 0-9, two to four weeks after treatment
# In short: (§2)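 Seeds mixed with potting soil were sown on about one inch of soil in cups, then sprayed preemergence with test compound in aqueous acetone at roughly 0.125 to 0.250 kg per hectare. Plants were grown in the greenhouse and rated visually 2–4 weeks later against a control.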
# [14] = tested on: ALOMY, Blackgrass, Alopecurus myosuroides; experiment: Preemergence herbicidal evaluation (Example 148); settings: rating scale 0-9, two to four weeks after treatment
# In short: as §2
# [15] = tested on: AMBEL, Ragweed, Common, Ambrosia artemiisifolia, L.; experiment: Preemergence herbicidal evaluation (Example 148); settings: rating scale 0-9, two to four weeks after treatment
# In short: as §2
# [16] = tested on: CHEAL, Lambsquarters, Chenopodium album, L. Common; experiment: Preemergence herbicidal evaluation (Example 148); settings: rating scale 0-9, two to four weeks after treatment
# In short: as §2
# [17] = tested on: DIGSA, Crabgrass, (Hairy) L, Digitaria sanguinalis, (L)Scop; experiment: Preemergence herbicidal evaluation (Example 148); settings: rating scale 0-9, two to four weeks after treatment
# In short: as §2
# [18] = tested on: ECHCG, Barnyardgrass, Echinochloa crusgalli, (L.)Beau; experiment: Preemergence herbicidal evaluation (Example 148); settings: rating scale 0-9, two to four weeks after treatment
# In short: as §2
# [19] = tested on: GLXMA, Soybean, Glycine max, (L.) Merr.; experiment: Preemergence herbicidal evaluation (Example 148); settings: rating scale 0-9, two to four weeks after treatment
# In short: as §2
# [20] = tested on: IPOHE, Morningglory, Ivyleaf, Ipomoea hederacea, (L)Jacq.; experiment: Preemergence herbicidal evaluation (Example 148); settings: rating scale 0-9, two to four weeks after treatment
# In short: as §2
# [21] = tested on: SETVI, Green foxtail, Setaria viridis, (L.)Beau; experiment: Preemergence herbicidal evaluation (Example 148); settings: rating scale 0-9, two to four weeks after treatment
# In short: as §2
# [22] = tested on: TRZAW, Winter wheat, Tritium Aestivum, L. (Winter); experiment: Preemergence herbicidal evaluation (Example 148); settings: rating scale 0-9, two to four weeks after treatment
# In short: as §2
# [23] = tested on: XANST, Cocklebur, Xanthium strumariam; experiment: Preemergence herbicidal evaluation (Example 148); settings: rating scale 0-9, two to four weeks after treatment
# In short: as §2
# [24] = tested on: ZEAMX, Field corn, Zea mays L.; experiment: Preemergence herbicidal evaluation (Example 148); settings: rating scale 0-9, two to four weeks after treatment
# In short: as §2
compound,measurement,setting,value
CNS(=O)(=O)NC(=O)c1cc(-n2c(=O)cc(C(F)(F)F)n(C)c2=O)c(F)cc1Cl [Example 56],Postemergence herbicidal rating ABUTH,[1]; rate 0.016 kg/ha,9.0
same,Postemergence herbicidal rating ABUTH,[1]; rate 0.032 kg/ha,9.0
same,Postemergence herbicidal rating ALMOY,[2]; rate 0.016 kg/ha,2.0
same,Postemergence herbicidal rating ALMOY,[2]; rate 0.032 kg/ha,2.0
same,Postemergence herbicidal rating AMBEL,[3]; rate 0.016 kg/ha,8.0
same,Postemergence herbicidal rating AMBEL,[3]; rate 0.032 kg/ha,9.0
same,Postemergence herbicidal rating CHEAL,[4]; rate 0.016 kg/ha,7.0
same,Postemergence herbicidal rating CHEAL,[4]; rate 0.032 kg/ha,7.0
same,Postemergence herbicidal rating DIGSA,[5]; rate 0.016 kg/ha,3.0
same,Postemergence herbicidal rating DIGSA,[5]; rate 0.032 kg/ha,5.0
same,Postemergence herbicidal rating ECHCG,[6]; rate 0.016 kg/ha,7.0
same,Postemergence herbicidal rating ECHCG,[6]; rate 0.032 kg/ha,7.0
same,Postemergence herbicidal rating GLXMA,[7]; rate 0.016 kg/ha,8.5
same,Postemergence herbicidal rating GLXMA,[7]; rate 0.032 kg/ha,8.5
same,Postemergence herbicidal rating IPOHE,[8]; rate 0.016 kg/ha,9.0
same,Postemergence herbicidal rating IPOHE,[8]; rate 0.032 kg/ha,9.0
same,Postemergence herbicidal rating SETVI,[9]; rate 0.016 kg/ha,6.0
same,Postemergence herbicidal rating SETVI,[9]; rate 0.032 kg/ha,7.0
same,Postemergence herbicidal rating TRZAW,[10]; rate 0.016 kg/ha,4.0
same,Postemergence herbicidal rating TRZAW,[10]; rate 0.032 kg/ha,5.0
same,Postemergence herbicidal rating XANST,[11]; rate 0.016 kg/ha,9.0
same,Postemergence herbicidal rating XANST,[11]; rate 0.032 kg/ha,9.0
same,Postemergence herbicidal rating ZEAMX,[12]; rate 0.016 kg/ha,7.5
same,Postemergence herbicidal rating ZEAMX,[12]; rate 0.032 kg/ha,8.0
same,Preemergence herbicidal rating ABUTH,[13]; rate 0.125 kg/ha,9.0
same,Preemergence herbicidal rating ABUTH,[13]; rate 0.25 kg/ha,9.0
same,Preemergence herbicidal rating ALMOY,[14]; rate 0.125 kg/ha,0.0
same,Preemergence herbicidal rating ALMOY,[14]; rate 0.25 kg/ha,0.0
same,Preemergence herbicidal rating AMBEL,[15]; rate 0.125 kg/ha,9.0
same,Preemergence herbicidal rating AMBEL,[15]; rate 0.25 kg/ha,9.0
same,Preemergence herbicidal rating CHEAL,[16]; rate 0.125 kg/ha,9.0
same,Preemergence herbicidal rating CHEAL,[16]; rate 0.25 kg/ha,9.0
same,Preemergence herbicidal rating DIGSA,[17]; rate 0.125 kg/ha,7.0
same,Preemergence herbicidal rating DIGSA,[17]; rate 0.25 kg/ha,7.0
same,Preemergence herbicidal rating ECHCG,[18]; rate 0.125 kg/ha,3.0
same,Preemergence herbicidal rating ECHCG,[18]; rate 0.25 kg/ha,7.0
same,Preemergence herbicidal rating GLXMA,[19]; rate 0.125 kg/ha,2.0
same,Preemergence herbicidal rating GLXMA,[19]; rate 0.25 kg/ha,9.0
same,Preemergence herbicidal rating IPOHE,[20]; rate 0.125 kg/ha,8.0
same,Preemergence herbicidal rating IPOHE,[20]; rate 0.25 kg/ha,9.0
same,Preemergence herbicidal rating SETVI,[21]; rate 0.125 kg/ha,4.0
same,Preemergence herbicidal rating SETVI,[21]; rate 0.25 kg/ha,8.0
same,Preemergence herbicidal rating TRZAW,[22]; rate 0.125 kg/ha,0.0
same,Preemergence herbicidal rating TRZAW,[22]; rate 0.25 kg/ha,0.0
same,Preemergence herbicidal rating XANST,[23]; rate 0.125 kg/ha,8.0
same,Preemergence herbicidal rating XANST,[23]; rate 0.25 kg/ha,9.0
same,Preemergence herbicidal rating ZEAMX,[24]; rate 0.125 kg/ha,0.0
same,Preemergence herbicidal rating ZEAMX,[24]; rate 0.25 kg/ha,2.0
CC(C)N(C)S(=O)(=O)NC(=O)c1cc(-n2c(=O)cc(C(F)(F)F)n(N)c2=O)c(F)cc1Cl [Example 76],Postemergence herbicidal rating ABUTH,[1]; rate 0.016 kg/ha,9.0
same,Postemergence herbicidal rating ABUTH,[1]; rate 0.032 kg/ha,9.0
same,Postemergence herbicidal rating ALMOY,[2]; rate 0.016 kg/ha,1.0
same,Postemergence herbicidal rating ALMOY,[2]; rate 0.032 kg/ha,1.0
same,Postemergence herbicidal rating AMBEL,[3]; rate 0.016 kg/ha,8.0
same,Postemergence herbicidal rating AMBEL,[3]; rate 0.032 kg/ha,8.0
same,Postemergence herbicidal rating CHEAL,[4]; rate 0.016 kg/ha,6.0
same,Postemergence herbicidal rating CHEAL,[4]; rate 0.032 kg/ha,6.0
same,Postemergence herbicidal rating DIGSA,[5]; rate 0.016 kg/ha,3.0
same,Postemergence herbicidal rating DIGSA,[5]; rate 0.032 kg/ha,4.0
same,Postemergence herbicidal rating ECHCG,[6]; rate 0.016 kg/ha,5.0
same,Postemergence herbicidal rating ECHCG,[6]; rate 0.032 kg/ha,6.0
same,Postemergence herbicidal rating GLXMA,[7]; rate 0.016 kg/ha,7.5
same,Postemergence herbicidal rating GLXMA,[7]; rate 0.032 kg/ha,7.5
same,Postemergence herbicidal rating IPOHE,[8]; rate 0.016 kg/ha,9.0
same,Postemergence herbicidal rating IPOHE,[8]; rate 0.032 kg/ha,9.0
same,Postemergence herbicidal rating SETVI,[9]; rate 0.016 kg/ha,5.0
same,Postemergence herbicidal rating SETVI,[9]; rate 0.032 kg/ha,6.0
same,Postemergence herbicidal rating TRZAW,[10]; rate 0.016 kg/ha,5.0
same,Postemergence herbicidal rating TRZAW,[10]; rate 0.032 kg/ha,6.0
same,Postemergence herbicidal rating XANST,[11]; rate 0.016 kg/ha,9.0
same,Postemergence herbicidal rating XANST,[11]; rate 0.032 kg/ha,9.0
same,Postemergence herbicidal rating ZEAMX,[12]; rate 0.016 kg/ha,5.5
same,Postemergence herbicidal rating ZEAMX,[12]; rate 0.032 kg/ha,6.5
same,Preemergence herbicidal rating ABUTH,[13]; rate 0.125 kg/ha,9.0
same,Preemergence herbicidal rating ABUTH,[13]; rate 0.25 kg/ha,9.0
same,Preemergence herbicidal rating ALMOY,[14]; rate 0.125 kg/ha,0.0
same,Preemergence herbicidal rating ALMOY,[14]; rate 0.25 kg/ha,2.0
same,Preemergence herbicidal rating AMBEL,[15]; rate 0.125 kg/ha,8.0
same,Preemergence herbicidal rating AMBEL,[15]; rate 0.25 kg/ha,9.0
same,Preemergence herbicidal rating CHEAL,[16]; rate 0.125 kg/ha,8.0
same,Preemergence herbicidal rating CHEAL,[16]; rate 0.25 kg/ha,9.0
same,Preemergence herbicidal rating DIGSA,[17]; rate 0.125 kg/ha,2.0
same,Preemergence herbicidal rating DIGSA,[17]; rate 0.25 kg/ha,3.0
same,Preemergence herbicidal rating ECHCG,[18]; rate 0.125 kg/ha,1.0
same,Preemergence herbicidal rating ECHCG,[18]; rate 0.25 kg/ha,2.0
same,Preemergence herbicidal rating GLXMA,[19]; rate 0.125 kg/ha,1.0
same,Preemergence herbicidal rating GLXMA,[19]; rate 0.25 kg/ha,3.0
same,Preemergence herbicidal rating IPOHE,[20]; rate 0.125 kg/ha,5.0
same,Preemergence herbicidal rating IPOHE,[20]; rate 0.25 kg/ha,9.0
same,Preemergence herbicidal rating SETVI,[21]; rate 0.125 kg/ha,1.0
same,Preemergence herbicidal rating SETVI,[21]; rate 0.25 kg/ha,2.0
same,Preemergence herbicidal rating TRZAW,[22]; rate 0.125 kg/ha,0.0
same,Preemergence herbicidal rating TRZAW,[22]; rate 0.25 kg/ha,1.0
same,Preemergence herbicidal rating XANST,[23]; rate 0.125 kg/ha,3.0
same,Preemergence herbicidal rating XANST,[23]; rate 0.25 kg/ha,5.0
same,Preemergence herbicidal rating ZEAMX,[24]; rate 0.125 kg/ha,1.0
same,Preemergence herbicidal rating ZEAMX,[24]; rate 0.25 kg/ha,1.0
